# Results taken from article PMC12487887, “Global conformations of Pichia pastoris complex I are distinguished by the binding of a unique interdomain bridging subunit” (Science Advances, 2025).
# T1: Pp-CI (flavin site; NDUFV1) (Komagataella pastoris, UniProt E1UWA7)
# T1 construct: gene nubm; native mitochondrial complex I, 44 subunits, purified in LMNG, in cMSP26 nanodiscs or proteoliposomes; with NADH-ubiquinone oxidoreductase 24 kDa subunit, mitochondrial; NADH-ubiquinone oxidoreductase 75 kDa subunit, mitochondrial
# T1 sequence (E1UWA7 17-473): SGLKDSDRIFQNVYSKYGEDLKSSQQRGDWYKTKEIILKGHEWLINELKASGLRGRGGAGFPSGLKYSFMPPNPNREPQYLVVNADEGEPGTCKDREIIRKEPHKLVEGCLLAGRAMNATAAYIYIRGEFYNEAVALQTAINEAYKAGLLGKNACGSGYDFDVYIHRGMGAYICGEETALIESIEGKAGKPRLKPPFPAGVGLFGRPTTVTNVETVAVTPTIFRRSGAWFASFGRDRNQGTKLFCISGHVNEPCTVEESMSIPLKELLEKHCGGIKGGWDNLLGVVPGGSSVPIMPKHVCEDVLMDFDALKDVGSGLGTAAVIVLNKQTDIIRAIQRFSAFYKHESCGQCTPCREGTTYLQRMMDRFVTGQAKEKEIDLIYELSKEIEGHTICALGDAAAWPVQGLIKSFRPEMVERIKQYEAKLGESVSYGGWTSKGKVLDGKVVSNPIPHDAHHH
# T2: NDUFA9 subunit of Pp-CI (Komagataella pastoris, UniProt E1UWA9)
# T2 construct: gene nuem; supernumerary subunit within native 44-subunit mitochondrial complex I in cMSP26 nanodiscs
# T2 sequence (E1UWA9 36-384): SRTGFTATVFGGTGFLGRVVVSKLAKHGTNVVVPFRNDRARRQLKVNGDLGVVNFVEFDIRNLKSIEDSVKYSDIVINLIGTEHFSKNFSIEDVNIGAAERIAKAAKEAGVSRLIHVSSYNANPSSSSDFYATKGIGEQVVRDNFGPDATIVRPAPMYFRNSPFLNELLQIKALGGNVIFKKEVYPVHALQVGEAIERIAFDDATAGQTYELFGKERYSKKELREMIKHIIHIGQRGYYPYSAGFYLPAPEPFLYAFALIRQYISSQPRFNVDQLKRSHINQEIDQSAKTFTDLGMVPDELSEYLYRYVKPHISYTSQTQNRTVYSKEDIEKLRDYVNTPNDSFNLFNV
# Columns and labels:
# [1] = target: T1, Pp-CI (flavin site; NDUFV1); assay: NADH:APAD+ oxidoreduction in proteoliposomes; assay type: biochemical; details: 500 μM APAD+, 100 μM NADH; pH 7.5, 32°C
# [2] = target: T1, Pp-CI (flavin site; NDUFV1); assay: cryo-EM structure; assay type: binding; details: state 1, closed, 2.8 Å
# [3] = target: T1, Pp-CI (flavin site; NDUFV1); assay: NADH:APAD+ and NADH:O2 oxidoreduction, absorbance […]-380 nm; assay type: biochemical; details: 100 μM NADH with 500 μM APAD+ or 200 μM NADH with Q10/AOX; pH 7.5, 32°C
# [4] = target: T2, NDUFA9 subunit of Pp-CI; assay: cryo-EM structure; assay type: binding; details: state 1, closed, 2.8 Å
# [5] = target: T3, Pp-CI (Q10-binding site) (Komagataella pastoris, UniProt E1UWA8+E1UWB5+E1UWC2); assay: NADH:O2 oxidoreduction with AOX, nanodiscs; assay type: biochemical; details: 200 μM NADH; Q10 in bilayer; pH 7.5, 32°C
# T3 construct: gene nucm; native mitochondrial complex I, 44 subunits, purified in LMNG, in cMSP26 nanodiscs or proteoliposomes; with NADH-ubiquinone oxidoreductase 51 kDa subunit, mitochondrial; NADH-ubiquinone oxidoreductase 24 kDa subunit, mitochondrial
# [6] = target: Pichia pastoris complex I (NADH:ubiquinone oxidoreductase), the 43 subunits other than NUQM, with the flavoprotein subcomplex (Pichia pastoris (endogenous in strain X-33)); assay: cryo-EM structure; Pp-CI purified in LMNG and reconstituted into cMSP26 nanodiscs with DOPC:DOPE:CDL and Q10, 10 mM Mops pH 7.5, 50 mM KCl; Titan Krios 300 kV; particles classified into four states (state 1 closed with NUQM 2.80 A; state 3 open without NUQM 3.34 A)
# [7] = target: Pichia pastoris complex I (NADH:ubiquinone oxidoreductase), the 43 subunits other than NUQM, with the flavoprotein subcomplex (Pichia pastoris (endogenous in strain X-33)); assay: cryo-EM structure; Pp-CI reconstituted into proteoliposomes (Pp-CI-PLs), 10 mM Mops pH 7.5, 50 mM KCl; Talos Arctica 200 kV; focused 3D classification on NUQM and on the flavoprotein; NUQM-bound map 4.7 A
molecule,measurement,setting,value
CC(=O)c1ccc[n+]([C@@H]2O[C@H](COP(=O)(O)OP(=O)(O)OC[C@H]3O[C@@H](n4cnc5c(N)ncnc54)[C@H](O)[C@@H]3O)[C@@H](O)[C@H]2O)c1 [APAD^+],NADH:APAD+ oxidoreduction in proteoliposomes,[1],the consistent rates of the flavin-localized NADH:APAD^+ reaction
Cc1cc2nc3c(=O)[nH]c(=O)nc-3n(C[C@H](O)[C@H](O)[C@H](O)COP(=O)(O)O)c2cc1C [FMN],cryo-EM structure,[2],canonical CI subunits that contain the FMN in the active site for NADH oxidation
NC(=O)C1=CN([C@@H]2O[C@H](COP(=O)(O)OP(=O)(O)OC[C@H]3O[C@@H](n4cnc5c(N)ncnc54)[C@H](O)[C@@H]3O)[C@@H](O)[C@H]2O)C=CC1 [NADH],"NADH:APAD+ and NADH:O2 oxidoreduction, absorbance 340-380 nm",[3],the consistent rates of the flavin-localized NADH:APAD^+ reaction
NC(=O)C1=CN([C@@H]2O[C@H](COP(=O)(O)OP(=O)(O)OC[C@H]3O[C@@H](n4cnc5c(N)ncnc54)[C@H](OP(=O)(O)O)[C@@H]3O)[C@@H](O)[C@H]2O)C=CC1 [NADPH],cryo-EM structure,[4],bound in NDUFA9
COC1=C(OC)C(=O)C(C/C=C(\C)CC/C=C(\C)CC/C=C(\C)CC/C=C(\C)CC/C=C(\C)CC/C=C(\C)CC/C=C(\C)CC/C=C(\C)CC/C=C(\C)CCC=C(C)C)=C(C)C1=O [Q10],"NADH:O2 oxidoreduction with AOX, nanodiscs",[5],confirming the rapid redox-cycling turnover of the Q10 contained in the ND bilayer
"NUQM, supernumerary interdomain bridge subunit of Pichia pastoris complex I (natural protein) ALATIRNDLKLNFRFKADVLEKNVIRSILAETKNLEIDNKDKDLDEFKLYDLLSKMIKQRQDSAAIYLKEGSPDRFRQTGWNELREVDYITKYLEALPVASAEEIEAKVEPIVQSVLEEEGELKSPKEIFSRIPWKVVNQDWQASEGAVKNTVLRLYNLYKTDA",percent of flavoprotein-containing particles with NUQM bound,[6],68.1%
same,"percent of outward-facing, flavoprotein-bound particles with NUQM bound",[7],77%
